Laboratory results: PubChem BioAssay (NCI)
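Protocol summary: plate cells (96-well), add compound at 5 concentrations, incubate 48 h, interpolate endpoints linearly. At the GI50, growth is halved. At the TGI there is no net growth.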

How the values were obtained:
Test in all cases: DTP human tumour cell line panel, 48 h
[1] = system: MCF7 breast
[2] = system: MOLT-4 leukemia
[3] = system: NCI-H226 lung
[4] = system: K-562 leukemia
[5] = system: A549 NSCLC
[6] = system: HOP-62 NSCLC
[7] = system: HS 578T breast
[8] = system: SN12C renal
[9] = system: DU-145 prostate

SMILES	TGI [1] [µM]	TGI [2] [µM]	TGI [3] [µM]	TGI [4] [µM]	TGI [5] [µM]	TGI [6] [µM]	TGI [7] [µM]	TGI [8] [µM]	TGI [9] [µM]	GI50 [3] [µM]
CSc1ncc2c(n1)-c1ccccc1OC2NC(C)(C)C (stereo not given)	> 100	> 100	> 100	> 100	> 100	> 100	> 100	> 100	> 100	–
Cc1ccnc(NC(=S)Nc2cccc(Cl)c2)c1	> 100	> 100	–	> 100	> 100	> 100	> 100	> 100	> 100	–
Cc1ccc(S(=O)(=O)c2ccc([N+](=O)[O-])o2)cc1	7.13	> 100	31.5	–	28.1	38.1	13.4	35.5	8.58	–
O=C(O)c1cc(Cl)cc2c1NC1(N2)C(=O)Nc2ccccc21 (stereo not given)	> 100	> 100	> 100	> 100	> 100	> 100	–	> 100	> 100	–
CSCCCNC(=O)c1csc(-c2csc(CCNC(=O)CNC(=O)CNC(=O)CNC(=O)OC(C)(C)C)n2)n1	> 100	> 100	> 100	> 100	> 100	> 100	> 100	> 100	> 100	–
CCn1c2ccc(O)c(C(=O)OC)c2c2cc3ccccc3c(O)c21	> 100	73.5	83.8	> 100	83	45	45.2	41.6	40.8	–
O=c1[nH]c2cc3cccnc3c(Cl)c2nc1CBr	29.2	> 100	56.1	> 100	38.8	29.4	28.3	27	30.4	–
CC1=C[C@@H](C)C[C@]2(C)CC[C@H](O2)[C@]23CC[C@](C)(C[C@H](O2)[C@@H]2O[C@@](C)(CC2=O)[C@@H](O)[C@H]2CC[C@@]4(CCC[C@@H](O4)[C@H](C)C(=O)O[C@H]4C[C@H]([C@]5(O)OCC[C@H](C)[C@@H]5O)O[C@H]4C=C1)O2)O3	> 10	> 10	–	> 10	> 10	0.00916	0.00214	–	> 10	–
Nc1ccc(-c2nc3ccc(F)cc3s2)cc1	–	> 100	> 100	> 100	> 100	90.8	> 100	> 100	98.6	47
Cc1cc(C)c2c(=N)c3ccccc3n(CCCCCCO)c2n1	8.56	17.6	11.1	–	17.7	23.6	8.37	7.55	25.3	–
CCOP(=O)(OCC)C1(O)CC(n2cc(C)c(=O)[nH]c2=O)OC1CO (stereo not given)	> 100	–	> 100	> 100	> 100	> 100	> 100	> 100	> 100	–
COc1cc(C(c2cccc3ccccc23)N2C(=O)CCC2C(=O)NCc2ccccc2)cc(OC)c1OC (stereo not given)	> 100	> 100	> 100	–	> 100	> 100	> 100	> 100	> 100	–
C/C=C/[C@H]1O[C@@](O)([C@@H](C)[C@H](O)[C@H](C)[C@H]2OC(=O)/C(OC)=C/C(C)=C/[C@@H](C)[C@@H](O)[C@@H](CC)[C@@H](O)[C@H](C)C/C(C)=C/C=C/[C@@H]2OC)C[C@H](OC2CC(O)C(OC(N)=O)C(C)O2)[C@@H]1C (stereo not given in full)	16.9	–	–	0.772	17.7	1.11	48	23.5	21.6	–
CCC(=O)NC(OCC1(CC)COC1)(C(F)(F)F)C(F)(F)F	> 100	> 100	> 100	> 100	–	> 100	> 100	> 100	> 100	–
CC(=O)CC(C)(C)NC(=O)[C@@]1(O)CC[C@H]2[C@@H]3CCC4=CC(=O)CC[C@@H]4[C@H]3CC[C@@]21C	–	> 100	> 100	> 100	> 100	> 100	> 100	> 100	> 100	–
OC(CCN1CCN(CCOC(c2ccccc2)c2ccccc2)CC1)c1ccc(Br)cc1 (stereo not given)	31.8	–	37.6	–	30.5	32	42.8	25.2	32.4	–
C=CC(C)(C)c1cc([C@@H]2COc3cc(O)ccc3C2=O)c(O)c(O)c1OC	32.5	> 100	> 100	> 100	> 100	–	> 100	37.6	46.2	–
COc1cc(OC)c2c(O)c(S(=O)(=O)c3ccc(C)cc3)c(=O)oc2c1	> 100	> 100	> 100	> 100	> 100	–	> 100	> 100	> 100	–
CCNc1ncnc2c1nnn2CC	> 100	> 100	> 100	> 100	> 100	> 100	–	> 100	> 100	–
N#Cc1c(Nc2nc3ccccc3s2)c2ccccc2n2c1nc1ccccc12	> 100	> 100	–	–	> 100	> 100	> 100	> 100	> 100	–
COc1cc2c(cc1C)NC(=O)/C2=C\c1ccncc1	11.4	–	–	> 100	66.5	22.8	8.1	20.9	53.6	–
COc1cc(/C=N\NC(=O)C[N+](C)(C)C)cc(OC)c1OC	> 10	> 10	–	> 10	> 10	> 10	> 10	> 10	> 10	–
CC(=O)O[C@H]1CN(S(=O)(=O)c2ccc(C)cc2)C[C@@H]1C1CCCCC1	42.6	62.7	48.9	> 100	–	> 100	37.8	–	> 100	–
Cc1cc(S(=O)(=O)Nc2nc3ccccc3n2-c2ccccc2)c(S)cc1Cl	> 100	> 100	> 100	> 100	> 100	–	> 100	–	> 100	–
